Assay [1] deals with GM-CSF stimulation of KG-1 cell proliferation. Put plainly: KG-1 cell proliferation assay (MTT). The format is cell-based, human. The method, then:
The assay for GM-CSF is based on stimulation of proliferation of suitable cells such as KG-1 cells, a cell line established from the bone marrow of a patient with acute myelogenous leukemia. AML-193 cells can also be used in this assay. AML-193 are cells as described in B. Lange et al., Blood, 70: 192-199 (1987). Cells are incubated in microtiter plate wells with dilutions of GM-CSF for about 6 days and then incubated for about an additional 4 hours with the tetrazolium salt MTT (3-(4,5-dimethylthiozol-2-yl)-2,5-diphenyltetrazolium bromide). MTT is converted by mitochondrial dehydrogenase enzymes to a colored reaction product, formazan (Mosmann, I. (1983) J. Immunological Methods 65, 55-63). The formazan is extracted with acidified isopropanol and measured spectrophotometrically. The observed optical density is directly proportional to the log2 cell concentration. The results are expressed as ΔO.D., where ΔO.D. is the optical density of the sample minus the optical density of a baseline control lacking GM-CSF. […] The formazan is extracted with acidified isopropanol and measured spectrophotometrically. […] The results are expressed as ΔO.D., where ΔO.D. is the optical density of the sample minus the optical density of a baseline control lacking GM-CSF. […]

Assay [2] concerns GM-CSF receptors on KG-1 cells. Put plainly: GM-CSF receptor binding assay on KG-1 cells. On the set-up: species or system human. Particulars: 2700 sites/cell, read-out: Kd, low affinity site. The method, then: GM-CSF is radioiodinated by the method of Bolton and Hunter (Bolton, A. E. & Hunter, W. M. (1973) Biochem. J. 133, 529-539) and purified by gel filtration on a Sephadex G-25 column (PD-10, Pharmacia). The resulting ^125 I-GM-CSF has a specific radioactivity of about 1-3×10^6μCi/μMole and a stoichiometry of 0.4-1.2 moles ^125 I per mole of GM-CSF.
The samples are incubated at about 22° C. or 4° C. for 1 hour or 2 hours, respectively. Centrifugation for 21/2 minutes at 600×g yields a cell pellet which is washed twice with IMDM-10% FCS.
To measure the displacement of ^125 I-GM-CSF from receptors by polyclonal antibodies, antisera or pre-immune sera are included in the binding assays. Antibodies that recognize GM-CSF are incubated for about 10 minutes with ^125 I-GM-CSF prior to initiating binding by the addition of KG-1 cells, AML-193 cells or placental membranes. The sheep polyclonal antibody 1418, which recognized the GM-CSF receptor, is pre-incubated for about 10 minutes with KG-1 cells, AML-193 cells or placental membranes. Binding is initiated by ^125 I-GM-CSF addition.
GM-CSF (an article of commerce available, e.g., from Genzyme Corporation, Boston, Mass.) was radioiodinated by the method of Bolton and Hunter [Bolton, A. E. & Hunter, W. M., Biochem., J., 133: 529-539 (1973)] and purified by gel filtration on a Sephadex G-25 column (PD-10, Pharmacia). […]

In assay [3] the target is GM-CSF receptors on placental membranes. Put plainly: GM-CSF receptor binding assay on placental membranes. The procedure: Placental membranes are prepared by homogenization, centrifugation to remove the 100×g fraction, and thorough washing of the 27,300×g fraction. Protease inhibitors may be present in the homogenization and wash buffers. […] Following incubation for about 1 hour at about 22° C., samples are centrifuged for about 21/2 minutes at 800×g and the placental membrane pellet washed twice with IMDM-10% FCS. Cell pellets are counted on a gamma counter. Saturating concentrations of unlabeled GM-CSF are added to control assays to measure non-specific binding. To measure the displacement of ^125 I-GM-CSF from receptors by polyclonal antibodies, antisera or pre-immune sera are included in the binding assays. Antibodies that recognize GM-CSF are incubated for about 10 minutes with ^125 I-GM-CSF prior to initiating binding by the addition of KG-1 cells, AML-193 cells or placental membranes. The sheep polyclonal antibody 1418, which recognized the GM-CSF receptor, is pre-incubated for about 10 minutes with KG-1 cells, AML-193 cells or placental membranes. Binding is initiated by ^125 I-GM-CSF addition. Placental membranes were prepared by homogenization, centrifugation to remove the 100×g fraction, and thorough washing of the 27,300×g fraction. Protease inhibitors were present in the homogenization and wash buffers. […] Cell pellets were counted on a gamma counter. […]

In the case of “^125 I-GM-CSF: GM-CSF radioiodinated by the method of Bolton and Hunter, purified by gel filtration”, the “biological activity compared with unlabeled GM-CSF” value in assay [1] is “same biological activity as unlabeled GM-CSF”. For the same substance, the Kd in assay [2] was 0.73 nM; in assay [3], 0.86 nM.

The record behind these values is patent US5475087A, “Antagonists of human granulocyte-macrophage colony stimulating factor derived from the carboxyl terminus” (Schering Corporation, priority 1994, dated 1995).
